Entries after “also recorded” stand apart in the source; their conditions may differ.
Columns and labels:
SIV/HIV-2 antibodies = test: EIA of HIV-2 gp32 peptide-protein conjugates against macaque serum pools; type: binding; details: peptide conjugated via C-terminus to BSA (SMCC), coated at 10 micrograms peptide/ml; 1:101 dilution of SIV+ macaque serum pool; Figure 5
Method: The free peptides or peptide-protein conjugates of Figures 1-13 were initially screened for immunoreactivity by coating each well of polystyrene microtiter EIA plates (Costar, Cambridge, Massachusetts, U.S.A.) with 0.2 ml amounts of concentrations of 5-50 micrograms/ml peptide in Tris buffer, 10 mM, pH 8.0, at 4°C overnight. Peptides or peptide-protein conjugates showing immunoreactivity by EIA were then further diluted for coating to determine the minimal concentrations required that allowed maximal immunoreactivity with antibodies to HIV, and minimal nonspecific reactivity with normal sera. The EIA tests were performed as follows: The coating solution was removed from each well and the wells were blocked at 37°C for 30 minutes with a solution of 50 mM phosphate, 100 mM NaCl, pH 7.4, 1% BSA, 0.5% gelatin. The wells were then aspirated dry with a microtiter plate washer and washed 3 times with a solution of 50 mM phosphate, 100 mM NaCl, .05% Tween 20, (trademark) pH 7.4 (PBST). […] Reactions were stopped with 50 microliters of 4N H₂SO₄, and the color development was quantitated in a Multiscan plate reader at A₄₉₂. […] Most peptides and peptide conjugates were initially screened against a 1:101 dilution of pools of HIV positive or HIV negative sera, and the same serum pool was used to allow quantitative comparison of immunoreactivity of different free peptides or peptide-protein conjugates.
The peptides in Figures 1 and 5 were synthesized as described in Example 1 and conjugated to KLH or BSA as described in Example 2. These peptide-protein conjugates were coated to polystyrene microtiter plates all at a concentration 10 micrograms peptide/ml and evaluated for immunoreactivity as described in Example 3, using a 1:101 dilution of a pool of sera (HIV+/SIV+, respectively) containing antibodies to HIV-1 (Figure 1) or to HIV-2 (Figure 5), as well as pooled serum (HIV-/SIV-, respectively) containing no antibodies to HIV-1 or HIV-2. […]

antibodies to HIV-2 = test: Rapid EIA with latex-immobilized peptide reagents, HIV-2; type: binding; details: free peptide passively adsorbed onto carboxylate latex
Method: A 125 microliter volume of 10% latex was added to a 375 microliter volume of deionized water, and mixed with an equal volume (0.5ml) of 1M carbodiimide, pH 4.5. The mixture was shaken gently a room temperature for 1 hour, and then washed 3 times by centrifugation at 9,000 x g for 10 minutes, removal of supernate, and resuspension of the pellet in a 12-14 ml volume of deionized water, pH 4.5. The free peptides at 1 mg/ml concentration (500 micrograms/ml of each peptide 4S36 and 5S70), or the peptide-BSA conjugate of peptides 4S36 and 5S70 at 500 micrograms/ml were added to the final washed activated latex pellet (1 ml volume of peptide containing solution per 125 microliters original volume of latex). […] It was determined that this stock solution of latex coated with peptide-BSA conjugate could be diluted 1:10-1:30 with latex diluent buffer for use in the rapid EIA described below.
Serum specimens were diluted 1:8 for the rapid EIA in a serum diluent buffer consisting of 0.03M Tris, pH 8 containing 0.8% NaCl, 0.05% NaN₃, 0.05% Triton x-100 (trademark). […] The reaction was stopped after 3-4 minutes by adding a drop of 4N H₂SO₄, and the test device could be retained as a permanent record of positive (blue-purple color) or negative (white membrane) until the results were recorded. […]

Sequence: ARLNSWGCAFRQVCHGC [2S25]
- immunoreactivity with SIV/HIV-2 antibodies (SIV/HIV-2 antibodies): maximally immunoreactive; also recorded: Significant immunoreactivity; also recorded: best immunoreactivity
- discrimination of HIV-2+ from HIV-2- serum samples (antibodies to HIV-2): capable of discriminating

From patent EP0449955B1, “SYNTHETIC HIV-LIKE PEPTIDES, THEIR COMPOSITIONS AND USES” (CLARITY TECHNOLOGIES INCORPORATED, priority 1988, dated 1996)
